Test results taken from patent US8222416B2, “Azaindole glucokinase activators” (Hoffmann-La Roche Inc., priority 2009, dated 2012).

Each molecule was assayed against T1, Recombinant human liver GK1 (GST-GK) (Homo sapiens, UniProt P35557) (assay: In vitro glucokinase activity assay (G6PDH-coupled, NADH, OD340)). Conditions: at 30 μM.
T1 construct: made in house; host or cells: E. coli
T1 sequence (P35557 1-466 isoform P35557-2): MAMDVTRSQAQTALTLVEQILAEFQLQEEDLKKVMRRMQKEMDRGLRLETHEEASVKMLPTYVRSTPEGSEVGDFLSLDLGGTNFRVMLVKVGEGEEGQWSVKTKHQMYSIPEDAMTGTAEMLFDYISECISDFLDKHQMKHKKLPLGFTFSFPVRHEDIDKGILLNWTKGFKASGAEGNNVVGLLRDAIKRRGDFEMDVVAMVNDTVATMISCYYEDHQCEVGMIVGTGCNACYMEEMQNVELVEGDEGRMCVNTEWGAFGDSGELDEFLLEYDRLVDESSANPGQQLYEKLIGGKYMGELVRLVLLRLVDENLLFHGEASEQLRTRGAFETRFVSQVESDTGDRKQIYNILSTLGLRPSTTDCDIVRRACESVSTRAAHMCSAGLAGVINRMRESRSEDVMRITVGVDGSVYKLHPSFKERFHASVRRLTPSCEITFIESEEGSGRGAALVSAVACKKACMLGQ
Type: biochemical
Protocol: Glucokinase In Vitro Assay Protocol: Glucokinase (GK) was assayed by coupling the production of glucose-6-phosphate to the generation of NADH with glucose-6-phosphate dehydrogenase (G6PDH, 0.75-1 kunits/mg; Boehringer Mannheim, Indianapolis, Ind.) from Leuconostoc mesenteroides as the coupling enzyme (Scheme 2).
Recombinant human liver GK1 was expressed in E. coli as a glutathione S-transferase fusion protein (GST-GK) [Liang et al, 1995] and was purified by chromatography over a glutathione-Sepharose 4B affinity column using the procedure provided by the manufacturer (Amersham Pharmacia Biotech, Piscataway, N.J.).
The assay was conducted at 30° C. in a flat bottom 96-well tissue culture plate from Costar (Cambridge, Mass.) with a final incubation volume of 120 μL. The incubation reaction contained the following: 25 mM Hepes buffer (pH 7.1), 25 mM KCl, 5 mM D-glucose, 1 mM ATP, 1.8 mM NAD, 2 mM MgCl2, 1 μM sorbitol-6-phosphate, 1 mM dithiothreitol, test drug or 10% dimethylsulfoxide, ˜7 units/ml G6PDH, and GK (see below). All organic reagents were >98% pure and were from Boehringer Mannheim with the exceptions of D-glucose and Hepes which were from Sigma Chemical Co, St Louis, Mo. Test compounds were dissolved in dimethylsulfoxide and were added to the incubation reaction minus GST-GK in a volume of 12 μL to yield a final dimethylsulfoxide concentration of 10%. This mix was pre-incubated in the temperature controlled chamber of a SPECTRAmax 250 microplate spectrophotometer (Molecular Devices Corporation, Sunnyvale, Calif.) for 10 minutes to allow temperature equilibrium and then the reaction was started by the addition of 20 μL GST-GK.
After addition of enzyme, the increase in optical density (OD) at 340 nm was monitored spectrophotometrically to determine the rate of change (OD340 per min). The GK activity (OD340/min) in control wells (10% dimethylsulfoxide minus GK activators) was compared with the activity in wells containing test GK activators, and the concentration of activator that produced a 50% increase in the activity of GK, i.e., the SC1.5, was calculated.
For COc1cnc2[nH]c(C(CC3CCCC3)c3ccc(C(C)(C)O)cc3)cc2c1 (centres unmarked) [Example 35, 2-{4-[2-Cyclopentyl-1-(5-methoxy-1H-pyrrolo[2,3-b]pyridin-2-yl)-ethyl]-phenyl}-propan-2-ol], the “fold activation of GK” value was 1.4 fold at 30.

Same assay, conditions: concentration of activator that produced a 50% increase in the activity of GK; 5 mM D-glucose, 30° C.
CS(=O)(=O)c1ccc(C(CC2CCCC2)c2cc3cc(C(O)CO)cnc3[nH]2)cc1 (centres unmarked) [Example 7, 1-{2-[2-Cyclopentyl-1-(4-methanesulfonyl-phenyl)-ethyl]-1H-pyrrolo[2,3-b]pyridin-5-yl}-ethane-1,2-diol] showed an SC1.5 of 25.6 µM. Molecule CS(=O)(=O)c1ccc(C(CC2CCCC2)c2cc3cc(CO)cnc3[nH]2)cc1 (centres unmarked) [Example 8, {2-[2-Cyclopentyl-1-(4-methanesulfonyl-phenyl)-ethyl]-1H-pyrrolo[2,3-b]pyridin-5-yl}-methanol] has an SC1.5 of 3.4 µM. For CS(=O)(=O)c1ccc(C(CC2CCCC2)c2cc3cc(CC(O)CO)cnc3[nH]2)cc1 (centres unmarked) [Example 11, 3-{2-[2-Cyclopentyl-1-(4-methanesulfonyl-phenyl)-ethyl]-1H-pyrrolo[2,3-b]pyridin-5-yl}-propane-1,2-diol], the SC1.5 was 7.3 µM. With COc1cnc2[nH]c(C(CC3CCCC3)c3ccc(S(C)(=O)=O)cc3)cc2c1 (centres unmarked) [Example 12, 2-[2-Cyclopentyl-1-(4-methanesulfonyl-phenyl)-ethyl]-5-methoxy-1H-pyrrolo[2,3-b]pyridine] the SC1.5 was 0.18 µM. CN(C)C(=O)COc1cnc2[nH]c(C(CC3CCCC3)c3ccc(S(C)(=O)=O)cc3)cc2c1 (centres unmarked) [Example 13, 2-{2-[2-Cyclopentyl-1-(4-methanesulfonyl-phenyl)-ethyl]-1H-pyrrolo[2,3-b]pyridin-5-yloxy}-N,N-dimethyl-acetamide] was tested, and the SC1.5 was 2.0 µM. Molecule COCCOc1cnc2[nH]c(C(CC3CCCC3)c3ccc(S(C)(=O)=O)cc3)cc2c1 (centres unmarked) [Example 15, 2-[2-Cyclopentyl-1-(4-methanesulfonyl-phenyl)-ethyl]-5-(2-methoxy-ethoxy)-1H-pyrrolo[2,3-b]pyridine] has an SC1.5 of 0.451 µM. In the case of CN(C)CCOc1cnc2[nH]c(C(CC3CCCC3)c3ccc(S(C)(=O)=O)cc3)cc2c1 (centres unmarked) [Example 17, (2-{2-[2-Cyclopentyl-1-(4-methanesulfonyl-phenyl)-ethyl]-1H-pyrrolo[2,3-b]pyridin-5-yloxy}-ethyl)-dimethyl-amine], the SC1.5 is reported as 3.1 µM. With CC(C)Oc1cnc2[nH]c(C(CC3CCCC3)c3ccc(S(C)(=O)=O)cc3)cc2c1 (centres unmarked) [Example 18, 2-[2-Cyclopentyl-1-(4-methanesulfonyl-phenyl)-ethyl]-5-isopropoxy-1H-pyrrolo[2,3-b]pyridine] the SC1.5 was 0.719 µM. COc1cnc2[nH]c(C(CC3CCCC3)c3ccc(C(F)(F)F)cc3)cc2c1 (centres unmarked) [Example 20, 2-[2-Cyclopentyl-1-(4-trifluoromethyl-phenyl)-ethyl]-5-methoxy-1H-pyrrolo[2,3b]pyridine] showed an SC1.5 of 0.693 µM. COc1cnc2[nH]c(/C(=C/C3CCCO3)c3ccc(S(C)(=O)=O)cc3)cc2c1 (centres unmarked) [Example 21, 2-[(E)-1-(4-Methanesulfonyl-phenyl)-2-(tetrahydro-furan-2-yl)-vinyl]-5-methoxy-1H-pyrrolo[2,3-b]pyridine] gave an SC1.5 of 0.821 µM. CCOC(=O)C(C)(C)Oc1cnc2[nH]c(C(CC3CCCC3)c3ccc(S(C)(=O)=O)cc3)cc2c1 (centres unmarked) [Example 26, 2-{2-[2-Cyclopentyl-1-(4-methanesulfonyl-phenyl)-ethyl]-1H-pyrrolo[2,3-b]pyridin-5-yloxy}-2-methyl-propionic acid ethyl ester] gave an SC1.5 of 2.3 µM. CC(C)(Oc1cnc2[nH]c(C(CC3CCCC3)c3ccc(S(C)(=O)=O)cc3)cc2c1)C(=O)O (centres unmarked) [Example 27, 2-{2-[2-Cyclopentyl-1-(4-methanesulfonyl-phenyl)-ethyl]-1H-pyrrolo[2,3-b]pyridin-5-yloxy}-2-methyl-propionic acid] was tested, and the SC1.5 was 13.5 µM. For CC(C)(CO)Oc1cnc2[nH]c(C(CC3CCCC3)c3ccc(S(C)(=O)=O)cc3)cc2c1 (centres unmarked) [Example 28, 2-{2-[2-Cyclopentyl-1-(4-methanesulfonyl-phenyl)-ethyl]-1H-pyrrolo[2,3-b]pyridin-5-yloxy}-2-methyl-propan-1-ol], the SC1.5 was 2.8 µM. With CS(=O)(=O)c1ccc(C(CC2CCCC2)c2cc3cc(OCCO)cnc3[nH]2)cc1 (centres unmarked) [Example 30, 2-{2-[2-Cyclopentyl-1-(4-methanesulfonyl-phenyl)-ethyl]-1H-pyrrolo[2,3-b]pyridin-5-yloxy}-ethanol] the SC1.5 was 0.8 µM. Work on COc1cnc2[nH]c(C(CC3CCOCC3)c3ccc(S(C)(=O)=O)cc3)cc2c1 (centres unmarked) [Example 31] yielded an SC1.5 of 1.9 µM. In the case of COc1cnc2[nH]c(C(CC3CCOCC3)c3ccc(C(F)(F)F)cc3)cc2c1 (centres unmarked) [Example 33, 5-Methoxy-2-[2-(tetrahydro-pyran-4-yl)-1-(4-trifluoromethyl-phenyl)-ethyl]-1H-pyrrolo[2,3-b]pyridine], the SC1.5 is reported as 3.0 µM. With CS(=O)(=O)c1ccc(C(CC2CCCC2)c2cc3cc(CCO)cnc3[nH]2)cc1 (centres unmarked) [Example 36, 2-{2-[2-Cyclopentyl-1-(4-methanesulfonyl-phenyl)-ethyl]-1H-pyrrolo[2,3-b]pyridin-5-yl}-ethanol] the SC1.5 was 3.4 µM. Work on CN(C)CC(=O)OCc1cnc2[nH]c(C(CC3CCCC3)c3ccc(S(C)(=O)=O)cc3)cc2c1 (centres unmarked) [Example 37, Dimethylamino-acetic acid 2-[2-cyclopentyl-1-(4-methanesulfonyl-phenyl)-ethyl]-1H-pyrrolo[2,3-b]pyridin-5-ylmethyl-ester] yielded an SC1.5 of 4.4 µM. In the case of CS(=O)(=O)c1ccc(C(CC2CCCC2)c2cc3cc(CC#N)cnc3[nH]2)cc1 (centres unmarked) [Example 38, {2-[2-Cyclopentyl-1-(4-methanesulfonyl-phenyl)-ethyl]-1H-pyrrolo[2,3-b]pyridin-5-yl}-acetonitrile], the SC1.5 is reported as 9.8 µM. In the case of CN(C)C(=O)Cc1cnc2[nH]c(C(CC3CCCC3)c3ccc(S(C)(=O)=O)cc3)cc2c1 (centres unmarked) [Example 39, 2-{2-[2-Cyclopentyl-1-(4-methanesulfonyl-phenyl)-ethyl]-1H-pyrrolo[2,3-b]pyridin-5-yl}-N,N-dimethyl-acetamide], the SC1.5 is reported as 9.1 µM. Work on CN(C)CCc1cnc2[nH]c(C(CC3CCCC3)c3ccc(S(C)(=O)=O)cc3)cc2c1 (centres unmarked) [Example 40, (2-{2-[2-Cyclopentyl-1-(4-methanesulfonyl-phenyl)-ethyl]-1H-pyrrolo[2,3-b]pyridin-5-yl}-ethyl)-dimethyl-amine] yielded an SC1.5 of 9.0 µM. For COCc1cnc2[nH]c(C(CC3CCCC3)c3ccc(S(C)(=O)=O)cc3)cc2c1 (centres unmarked) [Example 41, 2-[2-Cyclopentyl-1-(4-methanesulfonyl-phenyl)-ethyl]-5-methoxymethyl-1H-pyrrolo[2,3-b]pyridine], the SC1.5 was 2.8 µM. Work on N#Cc1ccc(C(CC2CCCC2)c2cc3cccnc3[nH]2)cc1 (centres unmarked) [Example 43, 4-[2-Cyclopentyl-1-(1H-pyrrolo[2,3-b]pyridin-2-yl)-ethyl]-benzonitrile] yielded an SC1.5 of 1.4 µM. COCCCc1cnc2[nH]c(C(CC3CCCC3)c3ccc(S(C)(=O)=O)cc3)cc2c1 (centres unmarked) [Example 44, 2-[2-Cyclopentyl-1-(4-methanesulfonyl-phenyl)-ethyl]-5-(3-methoxy-propyl)-1H-pyrrolo[2,3-b]pyridine] showed an SC1.5 of 4.3 µM. In the case of CS(=O)(=O)c1ccc(C(CC2CCCC2)c2cc3cc(CCCO)cnc3[nH]2)cc1 (centres unmarked) [Example 45, 3-{2-[2-Cyclopentyl-1-(4-methanesulfonyl-phenyl)-ethyl]-1H-pyrrolo[2,3-b]pyridin-5-yl}-propan-1-ol], the SC1.5 is reported as 14.9 µM.
